Assays:
Trypanosoma cruzi = assay: MMV: Inhibition of Trypanosoma cruzi (Tulahuen C4 LacZ) (Chagas in vitro).; assay type: functional, organism-based
Leishmania infantum = assay: MMV: Inhibition of Leishmania infantum (MHOM/MA/BE/67) in vitro.; assay type: functional, organism-based
[1] = MMV: Cytotoxicity against human fibroblasts (MRC-5) cells.; conditions: MRC-5 cells (human fibroblasts)
[2] = tested on: Trypanosoma brucei brucei; assay: MMV: Inhibition of Trypanosoma brucei brucei (Squib 427) (HAT in vitro).; assay type: functional, organism-based
Plasmodium falciparum [3] = assay: MMV: Inhibition of Plasmodium falciparum 3D7 at 5uM compound concentration.; assay type: functional
[4] = tested on: Trypanosoma brucei rhodesiense; assay: MMV: Inhibition of Trypanosoma brucei rhodesiense (STIB 900) (HAT in vitro).; assay type: functional, organism-based
Plasmodium falciparum [5] = assay: MMV: Inhibition of Plasmodium falciparum 3D7 (EC50).; assay type: functional, organism-based
Plasmodium falciparum [6] = assay: MMV: Inhibition of Plasmodium falciparum K1 (EC50).; assay type: functional, organism-based
Plasmodium falciparum [7] = assay: MMV: Inhibition of Plasmodium falciparum 3D7 at 2uM compound concentration.; assay type: functional

Row | Structure (SMILES) | IC50 (Trypanosoma cruzi) [µM] | IC50 (Leishmania infantum) [µM] | IC50 [1] [µM] | IC50 [2] [µM] | inhibition at 5 µM (Plasmodium falciparum [3]) [%] | IC50 [4] [µM] | EC50 (Plasmodium falciparum [5]) [µM] | EC50 (Plasmodium falciparum [6]) [µM] | inhibition at 2 µM (Plasmodium falciparum [7]) [%]
1 | CSC1=NC(=Nc2c(C)cccc2C)C2(CCC(C(C)(C)C)CC2)N1c1ccc(Cl)cc1 (stereo not drawn) | 15.4 | 16.2 | > 32 | 16.1 | 96 | 15.3 | 0.135 | 0.172 | –
2 | CN(C)CCNc1cc(-c2ccccc2)nc2ccccc12 | 7.26 | 6.35 | 25.4 | 3.91 | – | 4.03 | 4 | – | 92
3 | Oc1ccccc1CN1CCC2(CCCN(Cc3ccccc3F)C2)C1 (stereo not drawn) | 14 | 16 | > 32 | 14.8 | 98 | 15.8 | 0.548 | 0.268 | –
4 | CCOC(=O)C1=C(C)N=c2sc(=Cc3ccccc3O)c(=O)n2C1c1ccc(OC)c2ccccc12 (stereo not drawn) | > 32 | 16.2 | > 32 | 16.9 | 97 | 7.36 | 1.51 | 1.17 | –
5 | CCOc1ccc(N2C(N)=NC(N)=NC2(C)C)cc1 | > 32 | > 32 | 21.1 | > 32 | – | > 32 | – | – | 92
6 | COc1ccc2nc(C)cc(Nc3ccc(Cl)cc3)c2c1 | 3.66 | 4.06 | > 32 | 3.57 | – | 3.51 | 2 | – | 95
7 | COc1cccc(Nc2nc(N)c3ccccc3n2)c1 | 15.8 | 12 | > 32 | 9.07 | – | 12.1 | 4 | – | 94
8 | Cc1ccc(N2C(=O)C3C(C2=O)C2(c4ccccc4)C(=O)C3(c3ccccc3)C(c3ccccc3)=C2c2ccccc2)cc1 (stereo not drawn) | > 32 | > 32 | > 32 | > 32 | 98 | > 32 | 0.282 | 0.396 | –
9 | CCCCCCc1cc2cc(-c3csc(C=Cc4ccccc4)n3)c(=O)oc2cc1O | 19.1 | > 32 | > 32 | 13.6 | 92 | 8.87 | 0.387 | 0.143 | –
10 | O=C(NC(c1ccccc1)c1ccc2cccnc2c1O)c1ccccc1 (stereo not drawn) | < 0.125 | 16.6 | 11.8 | < 0.125 | 95 | < 0.125 | 1.17 | 1.45 | –
11 | COc1ccc(C2=C(c3ccc(OC)cc3)C3(c4ccccc4)C(=O)C2(c2ccccc2)C2C(=O)N(c4ccc(C)cc4)C(=O)C23)cc1 (stereo not drawn) | > 32 | > 32 | > 32 | > 32 | 98 | > 32 | 0.148 | 0.188 | –
12 | CCOC(=O)C1=C(c2ccccc2)N=c2sc(=Cc3cc(C)n(-c4ccc(F)cc4)c3C)c(=O)n2C1c1cccc(OC)c1OC (stereo not drawn) | > 32 | > 32 | > 32 | > 32 | 94 | 13.3 | 0.154 | 0.344 | –
13 | COc1cccc(C=Cc2nc(=O)c3ccccc3o2)c1OC | > 32 | > 32 | > 32 | > 32 | 96 | 17.5 | 0.0238 | 0.0362 | –
14 | COc1ccc(CNC2CCN(c3ccc(NC(=O)c4cccc(Cl)c4)cc3)CC2)cc1OC | 15.4 | 6.35 | > 32 | 3.09 | 97 | 3.8 | 0.663 | 1.61 | –
15 | COc1ccc(C=C2SC(=N)N(c3ccccc3OC)C2=O)cc1 | 11.6 | 16.1 | 4.49 | 13.7 | 97 | 13.9 | 0.168 | 0.687 | –
16 | CN1CCN(c2c3c(c(C#N)c4nc5ccccc5n24)CCC3)CC1 | > 32 | > 32 | > 32 | > 32 | – | > 32 | 4 | – | 42
17 | CCOc1ccc2nc(C)cc(Nc3ccc(N(C)C)cc3)c2c1 | 13.7 | 4 | 18.6 | 3.73 | – | 3.49 | 4 | – | 94
18 | Cc1cc(Nc2cccc(F)c2)nc(NCc2ccccc2)n1 | 0.919 | 2.57 | > 32 | 7.58 | – | 4.03 | – | – | 97
19 | CCOC(=O)c1c(C)n(-c2ccc(Cl)cc2)c2ccc(OC(=O)C=Cc3ccccc3)cc12 | 11.6 | > 32 | 18.5 | 16.1 | 97 | 4.32 | 0.215 | 0.659 | –

Row | Structure (SMILES) | IC50 (Trypanosoma cruzi) [µM] | IC50 (Leishmania infantum) [µM] | IC50 [1] [µM] | IC50 [2] [µM] | inhibition at 5 µM (Plasmodium falciparum [3]) [%] | IC50 [4] [µM] | EC50 (Plasmodium falciparum [5]) [µM] | EC50 (Plasmodium falciparum [6]) [µM] | inhibition at 2 µM (Plasmodium falciparum [7]) [%]
20 | Cc1cccc(Nc2nc(N)c3ccccc3n2)c1 | 11.4 | 4.32 | > 32 | 17.6 | – | 11.4 | 0.4 | – | 97
21 | OCCNc1nc(Nc2ccc(Cl)c(Cl)c2)nc2ccccc12 | 2.58 | 3.01 | 4.96 | 3.33 | – | 2.06 | 0.59 | – | 94
22 | COc1ccccc1C(=O)ON=C(N)Cc1cccc2ccccc12 | 5.48 | > 32 | 13.9 | 15 | 97 | 2.9 | 0.814 | 0.705 | –
23 | COc1cc(C(=O)ON=C(N)Cc2cccc3ccccc23)cc(OC)c1OC | 2.62 | > 32 | 5.66 | 4.09 | 99 | 1.15 | 0.782 | 0.54 | –
24 | Cc1ccc(Nc2nc(N)c3ccccc3n2)cc1Cl | 3.81 | 4 | 15.4 | 3.35 | – | 6.53 | 4 | – | 96
25 | Cc1cc(C=C2SC(=Nc3ccccc3)N(C3CCCC3)C2=O)c(C)n1-c1ccc(Cl)cc1 | > 32 | 25.4 | > 32 | > 32 | 97 | > 32 | 0.263 | 0.666 | –
26 | COc1cc(SC)ccc1C(=O)N1CCCC(C)C1 (stereo not drawn) | > 32 | > 32 | > 32 | > 32 | – | > 32 | 4 | – | 45
27 | Cc1ccc2c(C)nc(Nc3nc(C)cc(-c4ccccc4)n3)nc2c1 | 21.1 | > 32 | > 32 | > 32 | – | 27.7 | 4 | – | 73
28 | c1ccc(CNc2nc(Nc3ccccc3)nc3ccccc23)cc1 | 1.46 | 0.707 | 3.36 | 3.36 | – | 3.05 | 0.776 | – | 95
29 | CN(C)c1ccc(N2C(N)=NC(N)=NC2(C)C)cc1 | > 32 | > 32 | > 32 | > 32 | – | > 32 | – | – | 95
30 | CCOc1ccc(Nc2ccnc3cc(Cl)ccc23)cc1 | > 32 | > 32 | > 32 | > 32 | – | > 32 | 4 | – | 94
31 | CCOc1ccc2nc(C)cc(Nc3ccc(Br)cc3)c2c1 | 4.22 | 4.06 | 3.17 | 3.6 | – | 3.35 | 0.48 | – | 96
32 | CCCCc1c(C)nc2c(OC)cccc2c1O | > 32 | > 32 | > 32 | > 32 | – | > 32 | 4 | – | 92
33 | CCCCCCc1cc2cc(-c3nc4ccccc4[nH]3)c(=Nc3ccccc3C)oc2cc1O | > 32 | > 32 | > 32 | 17 | 96 | 12.8 | 0.551 | 0.149 | –
34 | COc1ccc2sc(N(Cc3cccnc3)C(=O)c3ccc(C#N)cc3)nc2c1 | 5.5 | > 32 | > 32 | > 32 | – | 16.1 | – | – | 89
35 | CCc1ccc(Nc2cc(C)nc3nc(C)nn23)cc1 | > 32 | > 32 | > 32 | > 32 | – | > 32 | 4 | – | 81
36 | O=C(Nc1cccc(C2=NCCN2)c1)Nc1cccc(C2=NCCN2)c1 [IMIDOCARB] | > 32 | > 32 | > 32 | 19.6 | 83 | 0.265 | 1.01 | 1.38 | –
37 | CN(C)c1ccc(C(O)(c2ccc(N(C)C)cc2)c2ccc(N(C)C)cc2)cc1 [METHYLROSANILINE] | < 0.125 | < 0.125 | 0.354 | < 0.125 | 96 | < 0.125 | 0.255 | 0.5 | –
